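Method: 48-hour compound exposure of cells in 96-well plates, five concentrations, linear interpolation of endpoints. At the GI50, growth is halved.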 The source made the active and inactive calls. No stated cut-off is given here; in the data, active = GI50 up to about 1.1 µM and inactive = higher.
Experiments:
Experiment in all cases: inhibition of tumour cell growth, NCI panel, 48 h
A549 = test system: A549
CAKI-1 = test system: CAKI-1
COLO 205 = test system: COLO 205
HOP-62 = test system: HOP-62
HT-29 = test system: HT-29
IGROV-1 = test system: IGROV-1
MOLT-4 = test system: MOLT-4
Malme-3M = test system: Malme-3M
NCI-H226 = test system: NCI-H226
NCI-H23 = test system: NCI-H23
NCI-H522 = test system: NCI-H522
OVCAR-5 = test system: OVCAR-5
RPMI-8226 = test system: RPMI-8226
SF-295 = test system: SF-295
SK-MEL-28 = test system: SK-MEL-28
SK-OV-3 = test system: SK-OV-3
SNB-75 = test system: SNB-75
SW-620 = test system: SW-620
UO-31 = test system: UO-31
786-0 = test system: 786-0

CC(=O)c1nccc2c1c(C)nc1ccccc12
GI50 (A549): 65 µM (inactive)
GI50 (CAKI-1): 30.3 µM (inactive)
GI50 (COLO 205): > 100 µM (inactive)
GI50 (HOP-62): 69.8 µM (inactive)
GI50 (HT-29): 74.5 µM (inactive)
GI50 (IGROV-1): 70 µM (inactive)
GI50 (MOLT-4): 44.6 µM (inactive)
GI50 (Malme-3M): > 100 µM (inactive)
GI50 (NCI-H226): 10.4 µM (inactive)
GI50 (NCI-H23): 79.8 µM (inactive)
GI50 (NCI-H522): 47.5 µM (inactive)
GI50 (OVCAR-5): > 100 µM (inactive)
GI50 (RPMI-8226): 16.4 µM (inactive)
GI50 (SF-295): 53.7 µM (inactive)
GI50 (SK-MEL-28): > 100 µM (inactive)
GI50 (SK-OV-3): > 100 µM (inactive)
GI50 (SNB-75): > 100 µM (inactive)
GI50 (SW-620): > 100 µM (inactive)
GI50 (UO-31): 55.7 µM (inactive)

CC1(C)C2CCC3(OCCO3)C1C1OC12 (stereo not given)
GI50 (786-0): > 100 µM (inactive)
GI50 (A549): > 100 µM (inactive)
GI50 (CAKI-1): 44.3 µM (inactive)
GI50 (COLO 205): > 100 µM (inactive)
GI50 (HT-29): > 100 µM (inactive)
GI50 (MOLT-4): > 100 µM (inactive)
GI50 (Malme-3M): > 100 µM (inactive)
GI50 (NCI-H226): > 100 µM (inactive)
GI50 (NCI-H23): > 100 µM (inactive)
GI50 (NCI-H522): > 100 µM (inactive)
GI50 (OVCAR-5): > 100 µM (inactive)
GI50 (RPMI-8226): > 100 µM (inactive)
GI50 (SF-295): > 100 µM (inactive)
GI50 (SK-MEL-28): > 100 µM (inactive)
GI50 (SK-OV-3): > 100 µM (inactive)
GI50 (SNB-75): 41.4 µM (inactive)
GI50 (SW-620): > 100 µM (inactive)
GI50 (UO-31): > 100 µM (inactive)

CCOC(=O)c1nc2ccc(C(F)(F)F)cc2nc1NCc1ccc(Cl)c(Cl)c1
GI50 (786-0): 25.1 µM (inactive)
GI50 (A549): 35.2 µM (inactive)
GI50 (CAKI-1): 24.9 µM (inactive)
GI50 (COLO 205): 31.8 µM (inactive)
GI50 (HOP-62): 21.1 µM (inactive)
GI50 (HT-29): 29.1 µM (inactive)
GI50 (IGROV-1): 20.7 µM (inactive)
GI50 (MOLT-4): > 100 µM (inactive)
GI50 (Malme-3M): 21.8 µM (inactive)
GI50 (NCI-H226): 30.8 µM (inactive)
GI50 (NCI-H23): 40 µM (inactive)
GI50 (NCI-H522): 11.4 µM (inactive)
GI50 (OVCAR-5): > 100 µM (inactive)
GI50 (RPMI-8226): > 100 µM (inactive)
GI50 (SF-295): 29.8 µM (inactive)
GI50 (SK-OV-3): 35.2 µM (inactive)
GI50 (SNB-75): 14 µM (inactive)
GI50 (SW-620): 40 µM (inactive)
GI50 (UO-31): 45 µM (inactive)

C[C@@]12CCC(=O)C=C1CC[C@H]1C2=CC[C@]2(C)C1CC[C@@]2(C)O (stereo not given in full)
GI50 (786-0): > 100 µM (inactive)
GI50 (A549): 50.4 µM (inactive)
GI50 (CAKI-1): 48.3 µM (inactive)
GI50 (COLO 205): 35 µM (inactive)
GI50 (HOP-62): 67.8 µM (inactive)
GI50 (HT-29): 37.9 µM (inactive)
GI50 (IGROV-1): 79.3 µM (inactive)
GI50 (MOLT-4): 38.4 µM (inactive)
GI50 (Malme-3M): > 100 µM (inactive)
GI50 (NCI-H226): > 100 µM (inactive)
GI50 (NCI-H23): 66.8 µM (inactive)
GI50 (NCI-H522): 28.1 µM (inactive)
GI50 (OVCAR-5): > 100 µM (inactive)
GI50 (RPMI-8226): 54.7 µM (inactive)
GI50 (SF-295): 32.3 µM (inactive)
GI50 (SK-MEL-28): > 100 µM (inactive)
GI50 (SK-OV-3): 54.6 µM (inactive)
GI50 (SNB-75): 66.1 µM (inactive)
GI50 (SW-620): 40.6 µM (inactive)
GI50 (UO-31): 41.9 µM (inactive)

O=[N+]([O-])/C=C/c1cn(CCCCCCCCn2cc(/C=C/[N+](=O)[O-])c3ccccc32)c2ccccc12
GI50 (786-0): > 10 µM (inactive)
GI50 (A549): > 10 µM (inactive)
GI50 (CAKI-1): 0.689 µM (active)
GI50 (COLO 205): > 10 µM (inactive)
GI50 (HOP-62): > 10 µM (inactive)
GI50 (HT-29): > 10 µM (inactive)
GI50 (IGROV-1): > 10 µM (inactive)
GI50 (MOLT-4): > 10 µM (inactive)
GI50 (Malme-3M): > 10 µM (inactive)
GI50 (NCI-H226): > 10 µM (inactive)
GI50 (NCI-H23): > 10 µM (inactive)
GI50 (NCI-H522): > 10 µM (inactive)
GI50 (OVCAR-5): > 10 µM (inactive)
GI50 (RPMI-8226): 0.41 µM (active)
GI50 (SF-295): > 10 µM (inactive)
GI50 (SK-MEL-28): > 10 µM (inactive)
GI50 (SK-OV-3): > 10 µM (inactive)
GI50 (SNB-75): > 10 µM (inactive)
GI50 (SW-620): > 10 µM (inactive)
GI50 (UO-31): > 10 µM (inactive)

Cc1ccc(-c2nnc3s/c(=C\c4ccc(N(C)C)cc4)c(=O)n23)cc1
GI50 (786-0): > 100 µM (inactive)
GI50 (A549): > 100 µM (inactive)
GI50 (CAKI-1): > 100 µM (inactive)
GI50 (COLO 205): > 100 µM (inactive)
GI50 (HOP-62): > 100 µM (inactive)
GI50 (IGROV-1): > 100 µM (inactive)
GI50 (MOLT-4): > 100 µM (inactive)
GI50 (Malme-3M): > 100 µM (inactive)
GI50 (NCI-H226): > 100 µM (inactive)
GI50 (NCI-H23): > 100 µM (inactive)
GI50 (NCI-H522): > 100 µM (inactive)
GI50 (OVCAR-5): > 100 µM (inactive)
GI50 (RPMI-8226): > 100 µM (inactive)
GI50 (SF-295): > 100 µM (inactive)
GI50 (SK-MEL-28): > 100 µM (inactive)
GI50 (SK-OV-3): > 100 µM (inactive)
GI50 (SNB-75): 65.2 µM (inactive)
GI50 (SW-620): > 100 µM (inactive)
GI50 (UO-31): > 100 µM (inactive)

O=C(c1cccs1)N(C(=S)N1CCN(c2ccccc2)CC1)c1ccccc1
GI50 (786-0): > 100 µM (inactive)
GI50 (A549): > 100 µM (inactive)
GI50 (CAKI-1): > 100 µM (inactive)
GI50 (COLO 205): > 100 µM (inactive)
GI50 (HOP-62): > 100 µM (inactive)
GI50 (HT-29): > 100 µM (inactive)
GI50 (IGROV-1): > 100 µM (inactive)
GI50 (MOLT-4): > 100 µM (inactive)
GI50 (Malme-3M): > 100 µM (inactive)
GI50 (NCI-H226): 47.6 µM (inactive)
GI50 (NCI-H23): > 100 µM (inactive)
GI50 (NCI-H522): > 100 µM (inactive)
GI50 (OVCAR-5): > 100 µM (inactive)
GI50 (RPMI-8226): > 100 µM (inactive)
GI50 (SF-295): > 100 µM (inactive)
GI50 (SK-MEL-28): > 100 µM (inactive)
GI50 (SK-OV-3): > 100 µM (inactive)
GI50 (SNB-75): > 100 µM (inactive)
GI50 (SW-620): > 100 µM (inactive)
GI50 (UO-31): > 100 µM (inactive)
